{
  "source": "patent US11717598B2",
  "about": "“Operating room coating applicator and method” (Ethicon, Inc., priority 2018, dated 2023)",
  "key": {"[1]": {"system": "Staphylococcus aureus", "assay": "zone of inhibition test of triclosan-coated stainless steel coupon on agar plate", "type": "cell-based", "conditions": "triclosan coating on 0.5\" polished 316 stainless steel coupon; incubated at 38° C. for 24 hours; inoculum of 10^5 bacteria per cubic centimeter; 80 mm diameter plate", "excerpt": "A filter paper disk, or other object, impregnated with a particular antimicrobial agent is applied to an agar medium that is inoculated with the test organism. Where the anti-microbial agent diffuses through the medium, and as long as the concentration of the antimicrobial agent is above the MIC, none of the susceptible organism will grow on or around the disk for some distance. This distance is called a zone of inhibition. […] The diameter of the zone of inhibition is inversely proportional to the MIC.\nA triclosan coating was applied to a 0.5″ polished 316 stainless steel coupon using the device described in FIGS. 1 and 2 according to the cycle described in FIG. 10. The stainless steel coupon was then incubated at 38° C. for 24 hours on an agar plate containing an initial Staphylococcus aureus inoculum of 10^5 bacteria per cubic centimeter of solution."}, "[2]": {"system": "S. aureus", "conditions": "measured in a suitable growth medium; Bhargava, H. et al, American Journal of Infection Control, June 1996; cited from earlier work"}},
  "data": [
    {"compound": "Oc1cc(Cl)ccc1Oc1ccc(Cl)cc1Cl", "note": "[triclosan, 2,4,4′-trichloro-2′-hydroxydiphenyl ether]", "values": [
      {"measurement": "zone of inhibition", "setting": "[1]", "result": "approximately 40 mm"},
      {"measurement": "minimum inhibitory concentration (MIC) against S. aureus", "setting": "[2]", "result": 0.01, "unit": "ppm"}
    ]}
  ]
}
